Measured values: patent publication US6495568B1, “Hydroxamic acid derivatives as matrix metalloprotease (MMP) inhibitors” (Warner-Lambert Company, priority 1997, dated 2002)

Columns and labels:
MMP-3 = target: T1, MMP-3 (Homo sapiens, UniProt P08254); assay: Inhibition of MMP-3 (fluorogenic peptide cleavage); format: biochemical; details: in vitro, catalytic domain MMP-3
T1 construct: Catalytic domains MMP-2, MMP-3 and MMP-9 were prepared in Pfizer Central Research laboratories; made in house
Experimental: (§1) The biological activities of the compounds of the present invention were determined by the following test methods, which are based on the ability of the compounds to inhibit the cleavage of various fluorogenic peptides by MMPs 1, 2, 3, 9, 13 and 14.
(§2) The assays for MMPs 2, 3, 9 and 14 are based upon the original protocol described in FEBS, 1992, 296, 263, with the minor modifications described below.
(§3) Inhibition of MMP-2, MMP-3 and MMP-9
(§4) Catalytic domains MMP-2, MMP-3 and MMP-9 were prepared in Pfizer Central Research laboratories. A stock solution of MMP-2, MMP-3 or MMP-9 (1 μM) was activated by the addition of APMA. For MMP-2 and MMP-9, a final concentration of 1 mM APMA was added, followed by incubation for 1 hour at 37° C. MMP-3 was activated by the addition of 2 mM APMA, followed by incubation for 3 hours at 37° C. The enzymes were then diluted in Tris-HCl assay buffer (100 mM Tris, 100 mM NaCl, 10 mM CaCl2 and 0.16% Brij 35, pH 7.5) to a concentration of 10 nM. The final concentration of enzyme used in the assays was 1 nM.
(§5) The fluorogenic substrate used in this screen was Mca-Arg-Pro-Lys-Pro-Tyr-Ala-Nva-Trp-Met-Lys(Dnp)-NH2 (Bachem Ltd., Essex, UK) as originally described in J.Biol.Chem., 1994, 269, 20952. This substrate was selected because it has a balanced hydrolysis rate against MMPs 2, 3 and 9 (kcat/km of 54,000, 59,400 and 55,300 s^−1 M^−1 respectively). The final substrate concentration used in the assay was 5 μM.
(§6) Determination of Enzyme Inhibition
(§7) The test compound was dissolved in dimethyl sulphoxide and diluted with assay buffer so that no more than 1% dimethyl sulphoxide was present. Test compound and enzyme were added to each well of a 96 well plate and allowed to equilibrate for 15 minutes at 37° C. in an orbital shaker prior to the addition of substrate. Plates were then incubated for 1 hour at 37° C., prior to determination of fluorescence using a fluorimeter (Fluostar; BMG Lab Technologies, Aylesbury, UK) at an excitation wavelength of 328 nm and emission wavelength of 393 nm. The potency of inhibition was measured from the amount of substrate cleavage obtained using a range of test compound concentrations and, from the resulting dose-response curve, an IC50 value (the concentration of inhibitor required to inhibit 50% of the enzyme activity) was calculated.

MMP-2 = target: T2, MMP-2 (Homo sapiens, UniProt P08253); assay: Inhibition of MMP-2 (fluorogenic peptide cleavage); format: biochemical; details: in vitro, catalytic domain MMP-2
T2 construct: Catalytic domains MMP-2, MMP-3 and MMP-9 were prepared in Pfizer Central Research laboratories
Experimental: as §1, §2, §3, §4, §5, §6, §7

[1] = system: human ovarian carcinoma xenografts; details: mice carrying human ovarian carcinoma xenografts; Cancer Res., 1993, 53, 2087; cited from earlier work
Human recombinant MMP-13 = target: T3, Human recombinant MMP-13 (Homo sapiens, UniProt P45452); assay: Inhibition of MMP-13 (fluorogenic peptide cleavage); format: biochemical; details: in vitro
T3 construct: purchased PanVera Corporation (Madison, Wis.)
Experimental: as §1
Human recombinant MMP-13 was prepared by PanVera Corporation (Madison, Wis.) and characterised at Pfizer Central Research laboratories. A 1.9 mg/ml stock solution was activated with 2 mM APMA for 2 hours at 37° C. MMP-13 was then diluted in assay buffer (50 mM Tris, 200 mM NaCl, 5 mM CaCl2, 20 μM ZnCl2 and 0.02% Brij 35, pH 7.5) to a concentration of 5.3 nM. The final concentration of enzyme used in the assay was 1.3 nM.
The fluorogenic substrate used in this screen was Dnp-Pro-Cha-Gly-Cys(Me)-His-Ala-Lys(NMA)-NH2. The final substrate concentration used in the assay was10 μM.
as §6
The test compound was dissolved in dimethyl sulphoxide and diluted with assay buffer so that no more than 1% dimethyl sulphoxide was present. Test compound and enzyme were added to each well of a 96 well plate. The addition of substrate to each well initiated the reaction. Fluorescence intensity was determined using a 96 well plate fluorimeter (Cytofluor II; PerSeptive Biosystems, Inc., Framingham, Mass.) at an excitation wavelength of 360 nm and emission wavelength of 460 nm. […]

T2 sequence (P08253 with tags, fused parts or gaps DEL222-396 limits assumed): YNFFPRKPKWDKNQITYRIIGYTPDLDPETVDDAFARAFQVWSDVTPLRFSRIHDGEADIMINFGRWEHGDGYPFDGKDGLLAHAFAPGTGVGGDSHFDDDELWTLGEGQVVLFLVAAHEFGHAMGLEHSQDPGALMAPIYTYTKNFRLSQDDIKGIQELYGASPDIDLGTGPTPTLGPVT
T1 sequence (P08254 100-272 limits assumed): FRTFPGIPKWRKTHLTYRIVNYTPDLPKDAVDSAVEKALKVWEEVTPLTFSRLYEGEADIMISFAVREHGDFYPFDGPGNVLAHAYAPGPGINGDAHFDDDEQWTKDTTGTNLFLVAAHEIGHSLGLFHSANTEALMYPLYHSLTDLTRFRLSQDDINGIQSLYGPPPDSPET

Structure (SMILES)	IC50 (MMP-3)	IC50 (MMP-2)	melting point	also measured
CNC(=O)[C@H](Cc1ccccc1)NC(=O)[C@H](CC(C)C)[C@H](CSc1cccs1)C(=O)NO [BB-94]				survival [1]: prolong the survival; tumour burden [1]: decrease the tumour burden
Cc1cc(C2=CCN(S(=O)(=O)CC(=O)NO)CC2)ccc1-c1ccccc1 [Example 2, N-Hydroxy-2-[4-(3-methyl-4-phenylphenyl)-1,2,3,6-tetrahydropyridin-1-ylsulphonyl]acetamide]	16 nM	315 nM	190 to 191 °C	IC50 (Human recombinant MMP-13): 28 nM
Cc1cc(C2=CCN(S(=O)(=O)C(C)(C)C(=O)NO)CC2)ccc1-c1cnc2ccccc2c1 [Example 40, N-Hydroxy-2-methyl-2-{4-[3-methyl-4-(quinolin-3-yl)phenyl]-1,2,3,6-tetrahydropyridin-1-ylsulphonyl}propanamide]	18 nM	525 nM	158 to 160 °C	
Cc1cc(C2=CCN(S(=O)(=O)CC(=O)NO)CC2)ccc1-c1ccc(F)c(Cl)c1 [Example 55, N-Hydroxy-2-{4-[4-(3chloro-4-fluorophenyl)-3-methylphenyl]-1,2,3,6-tetrahydropyridin-1-ylsulphonyl}acetamide]			181 to 183 °C	
Cc1cc(C2=CCN(S(=O)(=O)CC(=O)NO)CC2)ccc1-c1ccc2c(c1)OCO2 [Example 56, N-Hydroxy-2-{4-[4-(1,3-benzodioxol-5-yl)-3-methylphenyl]-1,2,3,6-tetrahydropyridin-1-ylsulphonyl}acetamide]	15 nM	387 nM	165 to 167 °C	
Cc1cc(C2=CCN(S(=O)(=O)CC(=O)NO)CC2)ccc1-c1ccccc1F [Example 57, N-Hydroxy-2-{4-[4-(2-fluorophenyl)-3-methylphenyl]-1,2,3,6-tetrahydropyridin-1-ylsulphonyl}acetamide]			160 to 163 °C	
COc1ccc(-c2ccc(C3=CCN(S(=O)(=O)CC(=O)NO)CC3)cc2C)cc1OC [Example 58, N-Hydroxy-2-{4-[4-(3,4-dimethoxyphenyl)-3-methylphenyl]-1,2,3,6-tetrahydropyridin-1-ylsulphonyl}acetamide]			172 to 174 °C	
Cc1cc(C2=CCN(S(=O)(=O)CC(=O)NO)CC2)ccc1-c1cccc(OC(F)(F)F)c1 [Example 60, N-Hydroxy-2-{4-[3-methyl-4-(3-trifluoromethoxyphenyl)phenyl]-1,2,3,6-tetrahydropyridin-1-ylsulphonyl}acetamide]			154 °C	
Cc1cc(C2CCN(S(=O)(=O)C(C)(C)C(=O)NO)CC2)ccc1-c1ccc2c(c1)OC(C)(C)O2 [Example 62, N-Hydroxy-2-{4-[4-(2,2-dimethyl-1,3-benzodioxol-5-yl)-3-methylphenyl]-piperidin-1-ylsulphonyl}-2-methylpropionamide]			184 to 186 °C	

Further lines, with some results ahead:

IC50 (MMP-3)	IC50 (MMP-2)	melting point	Structure (SMILES)	also measured
20 nM	173 nM		C=CCC(C)(C(=O)NO)S(=O)(=O)N1CC=C(c2ccc(-c3ccccc3)c(C)c2)CC1 (racemic) [Example 15, N-Hydroxy-2(R,S)-methyl-2-[4-(3-methyl-4-phenylphenyl)-1,2,3,6-tetrahydropyridin-1-ylsulphonyl]pent-4-enamide]	
26 nM	38 nM	200 to 201 °C	O=C(CS(=O)(=O)N1CCC(c2ccc(-c3ccccc3)cc2)CC1)NO [Example 3, N-Hydroxy-2-[4-(4-phenylphenyl)piperidin-1-ylsulphonyl]acetamide]	IC50 (Human recombinant MMP-13): 25 nM
24 nM	432 nM	152 to 154 °C	CCOc1cccc(-c2ccc(C3=CCN(S(=O)(=O)C4(C(=O)NO)CCOCC4)CC3)cc2C)c1 [Example 28, N-Hydroxy-4-{4-[4-(3-ethoxyphenyl)-3-methylphenyl]-1,2,3,6-tetrahydropyridin-1-ylsulphonyl}tetrahydropyran-4-carboxymide]	
23 nM	1910 nM	199 to 202 °C	COc1cccc(-c2ccc(C3CCN(S(=O)(=O)C4(C(=O)NO)Cc5ccccc5C4)CC3)cc2C)c1 [Example 50, N-Hydroxy-2-{4-[4-(3-methoxyphenyl)-3-methylphenyl]piperidin-1-ylsulphonyl}indane-2-carboxymide]	
		149 to 152 °C	Cc1cc(C2=CCN(S(=O)(=O)CC(=O)NO)CC2)ccc1-c1ccc2c(c1)CCC2 [Example 59, N-Hydroxy-2-{4-[4-(indan-5-yl)-3-methylphenyl]-1,2,3,6-tetrahydropyridin-1-ylsulphonyl}acetamide]	
		213 to 215 °C	Cc1cc(C2CCN(S(=O)(=O)C(C)(C)C(=O)NO)CC2)ccc1-c1ccc2c(c1)nc(C)n2C [Example 63, N-Hydroxy-2-{4-[4-(1,2-dimethylbenzimidazol-5-yl)-3-methylphenyl]piperidin-1-ylsulphonyl]-2-methylpropionamide]	
